This is an account of results in patent US8834635B2, “Degreasing compositions derived from levulinic acid (a compound obtainable from biomass) and process for degreasing metal surfaces” (Institut Univ. de Ciencia Tecnologia, S.A., priority 2011, dated 2014).

Structures are written as SMILES. ≈ marks a conversion by molar mass, not a printed value.

Data set [1] is described as follows: Removal efficacy test, solvent immersion followed by rinsing with water. The following applies: for Removal Efficacy normalized to trichloroethylene: Solvent-based preservative, water rinsing. The source says:
(§1) For our evaluation, a comparative method was used in which removal efficacy (RE) of several alternative solvents are compared with RE value obtained for the industrial standard degreaser, trichloroethylene.
(§2) The removal Efficacy (RE) measures in percentage (%) the degree of removal of organic materials (metal protector and/or solvent) from the surface of metal parts. The removal efficacy test, the grease of ten metallic greased pieces was removed by degreasing process. The standard procedure is carried out by bringing the solvent into contact with ten metal pieces which were previously treated with the metal protector. The metal parts are immersed in the solvent without shaking during 10 minutes in one volume of fresh solvent followed by three consecutive washing cycles by immersion in clean water. The amount of organic material (grease and/or solvent) that was not eliminated by the assayed procedure was determined by direct weight after removal of organic residues from the metallic parts by standard cleaning procedure with trichloroethylene.
Preservative A is a solvent-based preservative Aromatic hydrocarbons are often used in preservative formulations.
(§3) The degreasing efficacy of the LAOC solvent family was studied. These experiments remove the grease of ten greased pieces according to the procedure described before. This experiment was carried out for two different greases and the obtained results are described in table 2.

Assay in data set [2]: as above
To be noted: for Removal Efficacy normalized to trichloroethylene: Cereous preservative, water rinsing.
Description: as §1, §2
Preservative B is a cereous-based preservative.
as §3

Data set [3] in a line: Cytotoxicity, in vitro NRU. In kind it is cell-based. The following applies: read-out: Cytotoxicity, in vitro NRU, IC50 (mg/mL). Experimental.
The nature of another data set: Fish acute toxicity. The following applies: fish, in vivo; read-out: Fish acute toxicity, experimental, LC50.
The subject of a further data set is Fish. As to the kind of experiment: Fish acute toxicity. The following applies: in vivo.
A short description of data set [4]: Reusability of solvent without prior purification. As for the experimental part:
as §2
The recovery and reusability of solvents is critical in order to have an economically viable process. The reusability of butyl levulinate (LAOC-4) has been studied for both preservatives. The methodology involved the recovery and reuse of the solvent several times without any prior purification.

A short description of data set [5]: Surface degreasing of metal parts followed by solvent evaporation.
The conditions of data set [6]: classified by many health authorities, R45 risk phrase; cited from earlier work.

For `CCOC(=O)CCC(C)=O` [LAOC-2, Ethyl levulinate], the entries for the “Removal Efficacy normalized to trichloroethylene” value (from here on “Removal Efficacy normalized”) in data set [1] and in data set [2] were 53.0% and 70.9%, respectively.

Take `CCCOC(=O)CCC(C)=O` [LAOC-3, Propyl levulinate]: the “Removal Efficacy normalized” value is recorded as 79.6% in data set [1] and 81.7% in data set [2].

For `CC(=O)CCC(=O)OC(C)C` [LAOC-3i, iso-propyl levulinate], the “Removal Efficacy normalized” value in data set [2] is 87.0%.

Turning to `CCCCOC(=O)CCC(C)=O` [LAOC-4, Butyl levulinate], in data set [3], the IC50 worked out at 5.7 mg/mL (≈ 33.1 mM). Moreover, the 50% lethal concentration (LC50) in the data set “Fish acute toxicity” is below 100 µg/mL. For the same compound, the “Ecotoxicity rating (fish acute toxicity and ready biodegradability)” value (from here on “Ecotoxicity rating”) in the data set with Fish is on record as “Low ecotox”. Also, the “Removal Efficacy normalized” value in data set [1] is listed as 79.0%; in data set [2], 99.9%. In addition, the “Reusability (values normalized to trichloroethylene = 100)” value in data set [4] (Cereous preservative, number of cycles 1) is given as 98.0; in data set [4] (Cereous preservative, number of cycles 2), 93.2; in data set [4] (Cereous preservative, number of cycles 4), 93.4; in data set [4] (Cereous preservative, number of cycles 7), 85.9; in data set [4] (Cereous preservative, number of cycles 10) it was 84.6; in data set [4] (Solvent based preservative, number of cycles 1), 74.4. In addition, the “Reusability (values normalized to trichloroethylene = 100)” value in data set [4] (Solvent based preservative, number of cycles 2) amounted to 78.2; in data set [4] (Solvent based preservative, number of cycles 4) it was 62.2; in data set [4] (Solvent based preservative, number of cycles 7), 69.7. Moreover, the “Removal efficacy (%)” value in data set [5] (Ultrasound, 41° C., 10 min, evaporation 23 s at 117° C.) came out at 100%.

For `CC(=O)CCC(=O)OCC(C)C` [LAOC-4i, iso-butyl levulinate], the IC50 in data set [3] turned out to be 4.4 mg/mL (≈ 25.5 mM). Besides, the LC50 in the data set “Fish acute toxicity” is below 100 µg/mL. Further, the “Ecotoxicity rating” value in the data set with Fish was “Low ecotox”. For the same compound, the “Removal Efficacy normalized” value in data set [1] stood at 87.8%; in data set [2], 96.4%.

Regarding `CCCCCOC(=O)CCC(C)=O` [LAOC-5, Pentyl levulinate], in data set [3], the IC50 came out at 16.6 mg/mL (≈ 89.1 mM). Also, the LC50 in the data set “Fish acute toxicity” is below 100 µg/mL. Further, the “Ecotoxicity rating” value in the data set on Fish was “Low ecotox”. Further, the “Removal Efficacy normalized” value stood at 37.7% in data set [1] and 89.3% in data set [2].

Regarding `CCCCCCOC(=O)CCC(C)=O` [LAOC-6, Hexyl levulinate], the “Removal Efficacy normalized” value in data set [2] is on record as 56.0%.

Regarding `CCCCCCCCOC(=O)CCC(C)=O` [LAOC-8, Octyl levulinate], in data set [2], the “Removal Efficacy normalized” value is 61.0%.

Regarding `ClC=C(Cl)Cl` [Trichloroethylene, reference compound], the “RE (%) Removal Efficacy” value in data set [1] (Preservative A (solvent-based), immersion 10 minutes, three water washing cycles) is 94.2%; in data set [2] (Preservative B (cereous-based), immersion 10 minutes, three water washing cycles), 98.1%. In addition, the “Removal Efficacy normalized” value in data set [1] and in data set [2] was 100.0% throughout. In addition, the “removal efficacy (RE)” value in data set [1] (depending on the nature of the preservative (both preservatives A and B)) is listed as 94-98%. Moreover, the “Removal efficacy (%)” value in data set [5] (Immersion, 20° C., 3 min, evaporation 3 min at 20° C.) came out at 100%. Besides, in data set [6], the carcinogen classification entry was “probable carcinogen”.

Broadly, the LC50 is the concentration that kills 50% of the test population.
